Test results taken from patent US20250268897A1, “USE OF HETEROCYCLIC COMPOUND IN TREATING DISEASES RELATED TO KINASE DRUG-RESISTANT MUTATION AND METHOD THEREFOR” (Sichuan Kelun-Biotech Biopharmaceutical Co., Ltd., priority 2021, published 2025).

Tests used:
[1] = tested on: Ba/F3 KIF5B-RET^G810C cells; test: Inhibition of cell proliferation, Cell Titer Glo, Ba/F3 KIF5B-RET^G810C; assay type: cell-based
Protocol: (§1) Experimental purpose: To evaluate the inhibitory effect of the compound on proliferation of three BaF3 cell lines (Ba/F3 KIF5B-RET^G810R, Ba/F3 KIF5B-RET^G810S, Ba/F3 KIF5B-RET^G810C) in vitro.
(§2) Experimental method: Three Ba/F3 cell lines (Ba/F3 KIF5B-RET^G810R, Ba/F3 KIF5B-RET^G810S Ba/F3 KIF5B-RET^G810C) in logarithmic phase were respectively collected and inoculated into 96-well plates, with 2000 cells/95 μl/well. […] In addition, negative control wells (without the test compound) and blank control wells (without cells) were set.
(§3) the inhibition rate % was fitted using the four-parameter equation “log(agonist) vs response-variable slope (four parameters)” in GraphPad Prism 6.0, and the IC50 was obtained by calculation.

RET-G810S enzyme = RET-G810S enzyme (Homo sapiens (Human), UniProt P07949, G810S); test: RET inhibition experiment, HTRF KinEASE-TK kit, RET-G810S; assay type: biochemical
RET-G810S enzyme, sequence (P07949 29-1114 G810S): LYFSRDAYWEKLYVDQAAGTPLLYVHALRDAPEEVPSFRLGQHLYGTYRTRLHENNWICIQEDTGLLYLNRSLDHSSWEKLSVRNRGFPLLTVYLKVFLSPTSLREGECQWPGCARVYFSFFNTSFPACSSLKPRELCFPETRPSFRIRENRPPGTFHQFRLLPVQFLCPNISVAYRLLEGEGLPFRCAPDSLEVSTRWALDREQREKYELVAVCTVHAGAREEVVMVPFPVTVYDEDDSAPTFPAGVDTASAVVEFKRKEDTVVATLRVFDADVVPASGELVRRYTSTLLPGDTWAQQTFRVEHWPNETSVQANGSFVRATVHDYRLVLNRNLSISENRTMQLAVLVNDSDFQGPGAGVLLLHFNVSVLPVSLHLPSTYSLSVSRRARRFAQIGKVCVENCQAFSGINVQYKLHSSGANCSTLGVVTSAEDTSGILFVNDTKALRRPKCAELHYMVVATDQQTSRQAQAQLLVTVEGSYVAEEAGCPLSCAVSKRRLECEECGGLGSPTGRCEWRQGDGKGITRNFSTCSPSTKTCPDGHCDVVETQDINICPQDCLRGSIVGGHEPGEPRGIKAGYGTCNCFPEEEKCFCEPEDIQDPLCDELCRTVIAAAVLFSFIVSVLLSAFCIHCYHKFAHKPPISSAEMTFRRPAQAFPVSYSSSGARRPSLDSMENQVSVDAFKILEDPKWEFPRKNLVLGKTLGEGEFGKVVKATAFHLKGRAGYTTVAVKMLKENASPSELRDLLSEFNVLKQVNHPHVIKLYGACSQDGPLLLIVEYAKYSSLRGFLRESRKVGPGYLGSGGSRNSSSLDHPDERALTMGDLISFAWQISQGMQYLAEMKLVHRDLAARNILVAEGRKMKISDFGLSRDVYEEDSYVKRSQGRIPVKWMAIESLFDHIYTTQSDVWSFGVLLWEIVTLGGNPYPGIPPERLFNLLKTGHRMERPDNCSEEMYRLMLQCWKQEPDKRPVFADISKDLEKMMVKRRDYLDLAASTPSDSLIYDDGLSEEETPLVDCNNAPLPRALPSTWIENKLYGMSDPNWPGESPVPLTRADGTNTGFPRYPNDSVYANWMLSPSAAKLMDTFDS

[2] = tested on: Ba/F3 KIF5B-RET^G810R subcutaneous tumour; test: In vivo efficacy in BALB/c Nude mouse model with Ba/F3 KIF5B-RET^G810R subcutaneous tumour; settings: 30 mg/kg, PO, BID × 12; for VP-1 (mm^3, mean ± SEM): tumour volume one day before administration: baseline of the group
RET-G810C enzyme = RET-G810C enzyme (Homo sapiens (Human), UniProt P07949, G810C); test: RET inhibition experiment, HTRF KinEASE-TK kit, RET-G810C; assay type: biochemical
RET-G810C enzyme, sequence (P07949 29-1114 G810C): as the sequence (P07949 29-1114 G810S) above, with S782C counted along it

[3] = tested on: Ba/F3 KIF5B-RET^G810R cells; test: Inhibition of cell proliferation, Cell Titer Glo, Ba/F3 KIF5B-RET^G810R; assay type: cell-based
Protocol: as §1, §2, §3

RET-G810R enzyme = RET-G810R enzyme (Homo sapiens (Human), UniProt P07949, G810R); test: RET inhibition experiment, HTRF KinEASE-TK kit, RET-G810R; assay type: biochemical
RET-G810R enzyme, sequence (P07949 29-1114 G810R): as the sequence (P07949 29-1114 G810S) above, with S782R counted along it

[4] = tested on: Ba/F3 KIF5B-RET^G810S cells; test: Inhibition of cell proliferation, Cell Titer Glo, Ba/F3 KIF5B-RET^G810S; assay type: cell-based
Protocol: as §1, §2, §3

[5] = Mus musculus, BaF3, 72 h, 3 days culture, Cell Titer Glo

Row | SMILES | IC50 [1, 5] [nM] | Inhibiting the proliferation of Ba/F3 KIF5B-RET^G810C cells (in words) ([1]; comparison with controls) | IC50 (RET-G810S enzyme; Table 7, value ± spread) [nM] | Inhibition on RET-G810S enzyme (in words) (RET-G810S enzyme; summary of tables) | TGI (%) tumour growth inhibition rate [2] [%] | VP12 (mm^3, mean ± SEM): tumour volume on Day 12 of administration [2] [mm^3] | VP-1 (mm^3, mean ± SEM): tumour volume one day before administration [2] [mm^3] | IC50 (RET-G810C enzyme; Table 7, value ± spread) [nM] | Inhibition on RET-G810C enzyme (in words) (RET-G810C enzyme; summary of tables) | IC50 [3, 5] [nM] | Inhibiting the proliferation of Ba/F3 KIF5B-RET^G810R cells (in words) ([3]; comparison with controls) | IC50 (RET-G810R enzyme; Table 7, value ± spread) [nM] | Inhibition on RET-G810R enzyme (in words) (RET-G810R enzyme; summary of tables) | IC50 [4, 5] [nM] | Inhibiting the proliferation of Ba/F3 KIF5B-RET^G810S cells (in words) ([4]; comparison with controls)
1 | Cc1cc(Nc2cc(C)[nH]n2)nc(-c2ccc(N3CC4CC(C3)N4Cc3ccc(-n4cc(F)cn4)nc3)nc2)n1.O=C(O)/C=C/C(=O)O [Compound 1-A, Fumarate of 2-(6-(6-((6-(4-fluoro-1H-pyrazol-1-yl)pyridin-3-yl)methyl)-3,6-diazabicyclo [3.1.1]heptan-3-yl)pyridin-3-yl)-6-methyl-N-(5-methyl-1H-pyrazol-3-yl) pyrimidin-4-amine] | 65.3 ± 1 | superior to BLU-667 and Loxo-292 | 2.69 ± 0.56 | remarkably inhibited | 72.37 | 278.53 ± 51.13 | 101.08 ± 4.75 | 53.2 ± 10.7 | remarkably inhibited | 26.3 ± 5.76 | superior to BLU-667 and Loxo-292 | 19.6 ± 0.67 | remarkably inhibited | 20.2 ± 0.35 | superior to BLU-667 and Loxo-292
2 | COc1ccc(CN2C3CC2CN(c2ccc(-c4cc(OCC(C)(C)O)cn5ncc(C#N)c45)cn2)C3)cn1 [LOXO-292, Selpercatinib] |  |  |  |  | 2.69 | 725.55 ± 54.84 | 100.47 ± 4.52 |  |  |  |  |  |  |  | 
